Experimental data taken from patent US5985926A, “Method for inhibiting intracellular viral replication” (Cell Therapeutics, Inc., priority 1997, dated 1999).
Read-outs that look alike come from different tables or passages of the source.

How the values were obtained:
[1] = test system: HIV-1 strain JR-CSF in PBL; test: HIV-1 p24 antigen expression in acutely infected peripheral blood lymphocytes (PBL); assay type: cell-based, HIV-1; human cells; details: Human immunodeficiency virus 1, Lymphocyte, clinical isolate
Procedure: FIG. 17 illustrates a dose response curves of CT2576 on constitutive, TNF-α, and IL-6-mediated expression of HIV-1 in a chronically infected U1 cell line (left Y-axis) and of CT3537 on HIV expression in PBL acutely infected with the JR-CSF primary isolate (right Y-axis). U1 cells were incubated for four days after the addition of CT2576 with or without TNF-α (20 pg/ml) or IL-6 (1 ng/ml). PBL were inoculated with HIV at 10 ng virus/10^6 cells/well and incubated with various concentrations of CT3537 for 7 days. Each data point represents the average expression levels of HIV-1 p24-antigen in the cell supernatants measured by ELISA from triplicate samples with error bar indicating the SD.
Stable cell lines 293tar, 293tat and 293tat2 were generated by transfections using conditions described in (Tate et al., FASEB J. 4:227-231, 1990) with the plasmid pHIV.AP alone or along with either pHIV.tat or pSV2tat72, respectively. The assay of HIV-1 p24 antigen expression in the chronically HIV-1-infected promonocytic line U1 after 4 days and in acutely infected peripheral blood lymphocytes (PBL) after 7 days were described (Peterson et al., J. Clin. Invest. 89:574-580, 1992, and Brighty et al., Proc Natl. Acad. Sci. USA 88:7802-7805, 1991). […]

[2] = test system: HIV-LTR promoter in 293tat cells; test: HIV-LTR directed AP reporter expression in 293tat cells activated by tat and TNF-α; assay type: cell-based; details: Homo sapiens
Procedure: 293tat cells, a cell line stably transfected with the expression plasmids pHIV.AP and pHIV.tat, were plated onto 96-well microtiter plates at 2000 cells per well. The media were changed the next day and CT2576 was added at the indicated concentrations to the fresh media with or without TNF-α (20 ng/ml). 2 μl of medium from each well was used for AP assay 24 hr later. After culture media were withdrawn for AP assay, cytotoxicity was measured for the same cell cultures using an indicator dye, Alamar Blue™, that would change color in response to the reduction potential of cell medium due to cell growth. The left y-axis refers to the absorbance value of the reduced form of Alamar Blue™ at 570 nm with the background absorbance at 600 nm from the oxidized form of Alamar Blue™ subtracted. Each data point represents the mean of triplicate samples with error bar indicating the standard deviation of the mean.
Stable cell lines 293tar, 293tat and 293tat2 were generated by transfections using conditions described in (Tate et al., FASEB J. 4:227-231, 1990) with the plasmid pHIV.AP alone or along with either pHIV.tat or pSV2tat72, respectively. The assay of HIV-1 p24 antigen expression in the chronically HIV-1-infected promonocytic line U1 after 4 days and in acutely infected peripheral blood lymphocytes (PBL) after 7 days were described (Peterson et al., J. Clin. Invest. 89:574-580, 1992, and Brighty et al., Proc Natl. Acad. Sci. USA 88:7802-7805, 1991).
This example illustrates that CT2576 inhibited TNF-α and tat-activated HIV-LTR promoter directed expression in 293tat cells. Cell activation signals generated by interaction of ligands with receptors are eventually converted to changes in the pattern of gene expression. A reporter gene expression system under the control of the HIV-LTR promoter was set up to investigate compounds that inhibit signaling pathway for HIV activation in infected cells. […]

[3] = test system: PA formation in EB293 cells; test: PA and lyso (bis) PA species in TNF-stimulated EB293 cells (HPLC peaks D and A5); assay type: cell-based, human; details: CT2576 10 μM, TNF 20 ng/ml
Text: One must first quantitatively and qualitatively separate PAs from the other lipids found in serum by a chemical extraction of lipids and high performance liquid chromatography (HPLC) to separate and detect PAs. Chemical extraction can be accomplished, for example, by the method of Bligh et al. (Canadian J. Biochem. Physiol. 37:911-917, 1959) or that of Folch et al. (J. Biol. Chem. 226:497-509, 1957). Briefly, the method of Bligh et al. involves an organic extraction of lipids from biological tissue homogenates or fluids. One volume of sample and three volumes of methanol:chloroform (2:1) are vigorously shaken for 2 min. One volume of chloroform is added and then shaken vigorously for 30 sec. One volume of water is added and then shaken vigorously for 30 sec. The mixture is filtered and the upper aqueous layer is discarded. The lower organic layer contains a mixture of lipid classes. The method of Folch et al. involves the extraction of lipids from biological tissue homogenates or body fluids. One volume of sample plus 20 volumes of chloroform:methanol (2:1) are vigorously shaken for 2 min. The mixture is filtered and an amount of 0.1 N KCl equal to 20% of the extraction mixture volume is added and the mixture is shaken vigorously for 2 min. The aqueous and organic phases are allowed to separate. The upper aqueous layer is discarded. […]

Question: With CCCCCCCCNCC(O)CCCCCCCCCn1c(=O)c2c(ncn2C)n(C)c1=O (stereo not drawn) [CT2576, 1-(11-octylamino-10-hydroxyundecyl)-3,7-dimethylxanthine] as the compound, how does the IC50 [1] read?
Answer: The IC50 was about 1 µM.

Question: And the inhibition at 12 µM ([2]; 24 h, 293tat cells, CT2576 12 μM, after TNF-α or IL-1β induction, read-out: decrease in AP activity after TNF-α or IL-1β induction)?
Answer: The inhibition at 12 µM was 83 to 90%.

Question: What about the IC50 ([2]; read-out: IC50, TNF-α induced HIV-LTR directed AP expression, 293tat cells, with TNF-α (20 ng/ml)) of the same compound?
Answer: The IC50 was about 10 µM.

Question: And the IC50 ([2]; read-out: IC50, tat-dependent HIV-LTR directed AP expression, 293tat cells, tat activation, without TNF-α)?
Answer: The IC50 was about 10 µM.

Question: And the “PA mass (peak D), TNF-stimulated EB293 cells” value [3]?
Answer: The value was “reduced PA mass across all time points measured”.

Question: And the “lyso (bis) PA species (peak A5), TNF-stimulated EB293 cells” value [3]?
Answer: Its value is “increased lyso (bis) PA species across all time points”.
